Reference: the NIST ThermoML archive (doi:10.1016/j.jct.2008.04.008)
Where “and” joins values, the source holds several entries; their conditions need not be identical. Equal values may be shown once.

How the values were obtained:
[1] = Liquid
[2] = mn = molality of the nth substance listed, in mol/kg; conditions: Liquid; for speed of sound: Pulse-echo method

CO [methanol]
[1]
Conditions | mass density
283.15 K | 800.575 kg/m3 [middle of 4 runs]
288.15 K | 795.888 kg/m3 [middle of 4 runs]
293.15 K | 791.194 kg/m3 and 791.243 kg/m3 and 791.184 kg/m3
298.15 K | 786.534 kg/m3 and 786.475 kg/m3 and 786.485 kg/m3
303.15 K | 781.758 kg/m3 [middle of 4 runs]
308.15 K | 777.058 kg/m3 and 776.997 kg/m3 and 777.007 kg/m3
313.15 K | 772.28 kg/m3 and 772.219 kg/m3 and 772.229 kg/m3

Conditions | speed of sound [m/s]
[1], 298.15 K, 101.33 kPa, Pulse-echo method | 1102.4

CO [methanol] + [Br-].[Na+]
[2], m2 = 0
Conditions | mass density [kg/m3]
283.15 K | 800.625
288.15 K | 795.934
293.15 K | 791.243
298.15 K | 786.534
303.15 K | 781.808
308.15 K | 777.058
313.15 K | 772.28

CO [methanol] + [Br-].c1ccc([P+](c2ccccc2)(c2ccccc2)c2ccccc2)cc1
[2], m2 = 0
Conditions | mass density [kg/m3]
283.15 K | 800.567
288.15 K | 795.88
293.15 K | 791.184
298.15 K | 786.475
303.15 K | 781.748
308.15 K | 776.997
313.15 K | 772.219

CO [methanol] + [Na+].[O-][Cl+3]([O-])([O-])[O-]
[2], m2 = 0
Conditions | mass density [kg/m3]
283.15 K | 800.568
288.15 K | 795.879
293.15 K | 791.184
298.15 K | 786.475
303.15 K | 781.746
308.15 K | 776.997
313.15 K | 772.219

CO [methanol] + [Na+].c1ccc([B-](c2ccccc2)(c2ccccc2)c2ccccc2)cc1
[2], m2 = 0
Conditions | mass density [kg/m3]
283.15 K | 800.575
288.15 K | 795.888
293.15 K | 791.194
298.15 K | 786.485
303.15 K | 781.758
308.15 K | 777.007
313.15 K | 772.229

[Br-].[Na+] [sodium bromide] + CO
[2]
Conditions | mass density, 283.15 K [kg/m3] | mass density, 288.15 K [kg/m3] | mass density, 293.15 K [kg/m3] | mass density, 298.15 K [kg/m3] | mass density, 303.15 K [kg/m3] | mass density, 308.15 K [kg/m3] | mass density, 313.15 K [kg/m3] | speed of sound, 298.15 K [m/s]
m1 = 0.06477 | 805.613 | 800.933 | 796.252 | 791.558 | 786.848 | 782.114 | 777.354 | 1106.1
m1 = 0.08313 | 807.039 | 802.363 | 797.683 | 792.99 | 788.28 | 783.548 | 778.794 | 1107.1
m1 = 0.1039 | 808.613 | 803.939 | 799.259 | 794.566 | 789.865 | 785.138 | 780.385 | 1107.7
m1 = 0.1241 | 810.154 | 805.482 | 800.807 | 796.119 | 791.41 | – | – | 1108.7
m1 = 0.1439 | 811.667 | 806.995 | 802.323 | 797.64 | 792.938 | 788.218 | 783.471 | 1109.1
m1 = 0.1639 | 813.155 | 808.489 | 803.818 | 799.135 | 794.436 | 789.716 | 784.971 | –
m1 = 0.2071 | 816.441 | 811.772 | 807.109 | 802.43 | 797.736 | 793.019 | 788.281 | 1111.8
m1 = 0.2491 | 819.583 | 814.916 | 810.253 | 805.577 | 800.887 | 796.174 | 791.44 | 1113.2
m1 = 0.2915 | 822.759 | 818.104 | 813.441 | 808.767 | 804.078 | 799.369 | 794.64 | 1114.9
m1 = 0.3318 | 825.782 | 821.118 | 816.459 | 811.79 | 807.103 | 802.396 | 797.671 | 1116.1
m1 = 0.3735 | 828.905 | 824.245 | 819.585 | 814.919 | 810.236 | 805.533 | 800.808 | 1117.6
m1 = 0.4167 | 832.098 | 827.443 | 822.783 | 818.116 | 813.434 | 808.735 | 804.019 | 1119.2
